Laboratory results published in patent US20070270436A1, “NOVEL AMINO- AND IMINO-ALKYLPIPERAZINES” (Recordati Ireland Limited, priority 2006, published 2007).

Biological target: T1, human 5HT1A-serotonergic receptor (Homo sapiens, UniProt P08908)
T1 construct: expressed in transfected cells; host or cells: HeLa (human), stably transfected; membranes
T1 sequence (P08908 1-422): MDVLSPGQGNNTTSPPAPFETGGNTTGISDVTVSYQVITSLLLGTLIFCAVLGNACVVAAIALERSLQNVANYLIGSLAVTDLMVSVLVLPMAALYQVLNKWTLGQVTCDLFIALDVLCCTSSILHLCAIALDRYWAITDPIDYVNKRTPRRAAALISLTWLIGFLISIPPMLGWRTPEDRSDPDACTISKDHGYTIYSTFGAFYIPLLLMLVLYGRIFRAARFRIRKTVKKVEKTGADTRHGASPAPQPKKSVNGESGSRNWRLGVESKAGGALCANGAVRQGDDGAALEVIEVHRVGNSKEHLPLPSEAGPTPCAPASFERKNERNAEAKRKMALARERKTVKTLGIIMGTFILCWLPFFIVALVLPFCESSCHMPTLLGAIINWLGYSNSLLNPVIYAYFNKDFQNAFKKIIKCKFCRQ
Test: Radioligand binding to recombinant 5-HT1A receptor ([3H]8-OH-DPAT, HeLa cell membranes)
Settings: 1 nM [3H]8-OH-DPAT; Ki from IC50 by the Cheng equation; read-out: Ki (nM), binding affinity for 5HT1A receptor
Method: Genomic clone G-21 encoding the human 5HT1A-serotonergic receptor was stably transfected in a human cell line (HeLa). HeLa cells were grown as monolayers in Dulbecco's modified Eagle medium (DMEM), containing 10% fetal bovine serum and gentamycin (100 μg/ml) at 37° C. in a humidified atmosphere of 5% CO2 and air. The cells were detached from the growth flask at 95% confluence by a cell scraper and were lysed in cold 5 mM Tris and 5 mM EDTA buffer (pH 7.4). The homogenates were centrifuged at 40000×g×20 minutes and the pellets were resuspended in a small volume of cold 5 mM Tris and 5 mM EDTA buffer (pH 7.4) and immediately frozen and stored at −70° C. until use. On the day of experiment, the cell membranes were resuspended in incubation buffer: 50 mM Tris (pH 7.4), 2.5 mM MgCl2, 10 μM pargyline (Fargin et al., Nature 335, 358-360, 1988). The membranes were incubated in a final volume of 0.32 ml for 30 minutes at 30° C. with 1 nM [^3H]8-OH-DPAT, in the absence or presence of the test compounds. Non-specific binding was determined in the presence of 10 μM 5-HT. Incubation was stopped by addition of cold Tris buffer and rapid filtration through UniFilter GF/C plate.
The affinity of the tested compounds was evaluated as inhibition of specific binding of the radioligand to 5-HT1A receptor (IC50) by using the non-linear curve-fitting program Allfit (De Lean et al., Am. J. Physiol. 235, E97-E102 (1978)). The IC50 value was converted to an affinity constant (Ki) by the equation of Cheng et al., Biochem. Pharmacol. 22, 3099-3108 (1973).

## CO/N=C(\C1CCCCC1)C(CCN1CCN(c2cccc3c2OCCO3)CC1)c1ccccc1C#N (racemic) [Example 26, (R,S)-2-{1′-{Cyclohexyl-[(E)-methoxyimino]methyl}-3-[4-(2,3-dihydrobenzo[1,4]dioxin-5-yl)-piperazin-1-yl]propyl}benzonitrile]
  Ki: 0.38 nM

## COc1ccccc1N1CCN(CC[C@@H](c2ccccc2F)[C@H](NCc2ccco2)C2CCCCC2)CC1 (racemic) [Example 14, {(RS,SR)-1-Cyclohexyl-2-(2-fluorophenyl)-4-[4-(2-methoxyphenyl)-piperazin-1-yl]butyl}furan-2-ylmethylamine]
  Ki: 0.42 nM

## COc1ccccc1N1CCN(CC[C@@H](c2ccccc2F)[C@H](NC(C)C)C2CCCCC2)CC1 (racemic) [Example 12, (RS,SR)-{1-Cyclohexyl-2-(2-fluorophenyl)-4-[4-(2-methoxyphenyl)-piperazin-1-yl]butyl}isopropylamine]
  Ki: 0.99 nM

## CC(=NO)C(CCN1CCN(c2ccccc2OCC(F)(F)F)CC1)c1ccccc1F (stereo not drawn) [Example 31, E(Z)-3-(2-Fluorophenyl)-5-{4-[2-(2,2,2-trifluoroethoxy)phenyl]-piperazin-1-yl}pentan-2-one oxime]
  Ki: 6.03 nM

## COc1ccccc1N1CCN(CCC(c2ccccc2F)C(NC=O)C2CCCCC2)CC1 (stereo not drawn) [Example 6, N-{1-Cyclohexyl-2-(2-fluorophenyl)-4-[4-(2-methoxyphenyl)-piperazin-1-yl]butyl}formamide]
  Ki: 1.2 nM

## CNC(C1CCCCC1)C(CCN1CCN(Cc2cc(OC)ccc2Br)CC1)c1ccccc1F (stereo not drawn) [Example 44, 4-[4-(2-Bromo-5-methoxybenzyl)piperazin-1-yl]-1-cyclohexyl-2-(2-fluorophenyl)butylmethylamine]
  Ki: 0.4 nM

## COc1ccccc1N1CCN(CC[C@@H](c2ccccc2F)[C@H](N)C2CCCCC2)CC1 (single isomer, unassigned) [Example 5aA, (1R,2S) or (1S,2R)-1-Cyclohexyl-2-(2-fluorophenyl)-4-[4-(2-methoxyphenyl)piperazin-1-yl]butylamine]
  Ki: 0.6 nM

## COc1ccc(Br)c(CN2CCN(CCC(c3ccccc3F)C(N)C3CCCCC3)CC2)c1 (stereo not drawn) [Example 43, 4-[4-(2-Bromo-5-methoxybenzyl)piperazin-1-yl]-1-cyclohexyl-2-(2-fluorophenyl)butylamine]
  Ki: 0.3 nM

## NC(C1CCCCC1)C(CCN1CCN(c2cccc3[nH]cnc23)CC1)c1ccccc1F (stereo not drawn) [Example 48, 4-[4-(1H-Benzimidazol-4-yl)piperazin-1-yl]-1-cyclohexyl-2-(2-fluorophenyl)butylamine]
  Ki: 0.3 nM

## CON=C(C1CCCCC1)C(CCN1CCN(c2ccccc2OC)CC1)c1ccccc1F (stereo not drawn) [Example 2, 1-Cyclohexyl-2-(2-fluorophenyl)-4-[4-(2-methoxyphenyl)-piperazin-1-yl]butan-1-one O-methyloxime]
  Ki: 1.9 nM

## CNC(C1CCCCC1)C(CCN1CCN(c2cccc3c2OCCO3)CC1)c1ccccc1F (stereo not drawn) [Example 39, 1-Cyclohexyl-4-[4-(2,3-dihydrobenzo[1,4]dioxin-5-yl)piperazin-1-yl]-2-(2-fluorophenyl)butylmethylamine]
  Ki: 0.3 nM

## COc1ccccc1N1CCN(CC[C@H](c2ccccc2F)[C@@H](N)C2CCCCC2)CC1 (single isomer, unassigned) [Example 5aB, (1S,2R) or (1R,2S)-1-Cyclohexyl-2-(2-fluorophenyl)-4-[4-(2-methoxyphenyl)piperazin-1-yl]butylamine]
  Ki: 1.2 nM

## COc1ccccc1N1CCN(CC[C@@H](c2ccccc2F)[C@@H](C2CCCCC2)N(C)C(=O)N(C)C)CC1 (racemic) [Example 22, 1-{(RS,SR)-1-Cyclohexyl-2-(2-fluorophenyl)-4-[4-(2-methoxyphenyl)-piperazin-1-yl]butyl}-1,3,3-trimethylurea]
  Ki: 1.24 nM

## CC(=NO)C(CCN1CCN(c2cccc3c2OCCO3)CC1)c1ccccc1F (stereo not drawn) [Example 27, E(Z)-5-[4-(2,3-Dihydrobenzo[1,4]dioxin-5-yl)piperazin-1-yl]-3-(2-fluorophenyl)pentan-2-one oxime]
  Ki: 1.77 nM

## O=CNC(C1CCCCC1)C(CCN1CCN(c2cccc3[nH]cnc23)CC1)c1ccccc1F (stereo not drawn) [Example 47, N-[4-[4-(1H-Benzimidazol-4-yl)piperazin-1-yl]-1-cyclohexyl-2-(2-fluoro-phenyl)butyl]formamide]
  Ki: 0.8 nM

## CON=C(C)C(CCN1CCN(c2cccc3c2OCCO3)CC1)c1ccccc1F (mixture of isomers) [Example 28, 5-[4-(2,3-Dihydrobenzo[1,4]dioxin-5-yl)piperazin-1-yl]-3-(2-fluorophenyl)-pentan-2-one O-methyloxime]
  Ki: 1.33 nM

## COc1ccccc1N1CCN(CC[C@H](c2ccccc2F)[C@H](NC(C)=O)C2CCCCC2)CC1 (racemic) [Example 9, N-{(RS,RS)-1-Cyclohexyl-2-(2-fluorophenyl)-4-[4-(2-methoxyphenyl)-piperazin-1-yl]butyl}acetamide]
  Ki: 1.4 nM

## COc1ccc(Br)c(CN2CCN(CCC(c3ccccc3F)C(NC=O)C3CCCCC3)CC2)c1 (stereo not drawn) [Example 42, N-[4-[4-(2-Bromo-5-methoxybenzyl)piperazin-1-yl]-1-cyclohexyl-2-(2-fluorophenyl)butyl]formamide]
  Ki: 0.5 nM

## COc1ccccc1N1CCN(CC[C@H](c2ccccc2F)[C@@H](NC(=S)N(C)C)C2CCCCC2)CC1 (single isomer, unassigned) [Example 24B, 3-{(1S,2R) or (1R,2S)-1-Cyclohexyl-2-(2-fluorophenyl)-4-[4-(2-methoxyphenyl)piperazin-1-yl]butyl}-1,1-dimethylthiourea]
  Ki: 4.2 nM

## O=CNC(C1CCCCC1)C(CCN1CCN(c2cccc3[nH]ccc23)CC1)c1ccccc1F (stereo not drawn) [Example 52, N-{1-Cyclohexyl-2-(2-fluorophenyl)-4-[4-(1H-indol-4-yl)piperazin-1-yl]butyl}formamide]
  Ki: 2.3 nM

## COc1ccccc1N1CCN(CCC(C(=NOC(C)=O)C2CCCCC2)c2ccccc2F)CC1 (stereo not drawn) [Example 3, 1-Cyclohexyl-2-(2-fluorophenyl)-4-[4-(2-methoxyphenyl)-piperazin-1-yl]butan-1-one O-acetyl oxime]
  Ki: 0.87 nM

## COc1ccc(Br)c(CN2CCN(CCC(c3ccccc3F)C(NC(C)=O)C3CCCCC3)CC2)c1 (stereo not drawn) [Example 45, N-[4-[4-(2-Bromo-5-methoxybenzyl)piperazin-1-yl]-1-cyclohexyl-2-(2-fluoro-phenyl)butyl]acetamide]
  Ki: 1.1 nM

## O=CNC(C1CCCCC1)C(CCN1CCN(c2cccc3c2OCCO3)CC1)c1ccccc1F (stereo not drawn) [Example 37, N-[1-Cyclohexyl-4-[4-(2,3-dihydrobenzo[1,4]dioxin-5-yl)piperazin-1-yl]-2-(2-fluorophenyl)butyl]formamide]
  Ki: 0.8 nM

## COc1ccc(Br)c(CN2CCN(CCC(c3ccccc3F)C(C3CCCCC3)N(C)C(C)=O)CC2)c1 (stereo not drawn) [Example 46, N-[4-[4-(2-Bromo-5-methoxybenzyl)piperazin-1-yl]-1-cyclohexyl-2-(2-fluorophenyl)butyl]-N-methylacetamide]
  Ki: 0.8 nM

## CON=C(C)C(CCN1CCN(c2ccccc2OCC(F)(F)F)CC1)c1ccccc1F (stereo not drawn) [Example 32, E(Z)-3-(2-Fluorophenyl)-5-{4-[2-(2,2,2-trifluoroethoxy)phenyl]-piperazin-1-yl}pentan-2-one O-methyloxime]
  Ki: 2.24 nM

## CNC(=O)N[C@H](C1CCCCC1)[C@@H](CCN1CCN(c2ccccc2OC)CC1)c1ccccc1F (racemic) [Example 19, 1-{(RS,SR)-1-Cyclohexyl-2-(2-fluorophenyl)-4-[4-(2-methoxyphenyl)-piperazin-1-yl]butyl}-3-methylurea]
  Ki: 2.09 nM

## CNC(C1CCCCC1)C(CCN1CCN(c2ccccc2OC)CC1)c1ccccc1F (stereo not drawn) [Example 10a]
  Ki: 0.49 nM

## N[C@H](C1CCCCC1)[C@@H](CCN1CCN(c2cccc3c2OCCO3)CC1)c1ccccc1F (racemic) [Example 38, (RS,SR)-1-Cyclohexyl-4-[4-(2,3-dihydrobenzo[1,4]dioxin-5-yl)-piperazin-1-yl]-2-(2-fluorophenyl)butylamine]
  Ki: 0.8 nM

## COc1ccccc1N1CCN(CC[C@H](c2ccccc2F)[C@H](N)C2CCCCC2)CC1 (racemic) [Example 5b, (RS,RS)-1-Cyclohexyl-2-(2-fluorophenyl)-4-[4-(2-methoxyphenyl)-piperazin-1-yl]butylamine]
  Ki: 0.77 nM

## COc1ccccc1N1CCN(CCC(c2ccccc2F)C(C2CCCCC2)N(Cc2ccco2)Cc2ccco2)CC1 (stereo not drawn) [Example 15]
  Ki: 7.28 nM
